Experimental data taken from patent US20100267952A1, “USE OF NOVEL COMPOUND HAVING AFFINITY FOR AMYLOID, AND PROCESS FOR PRODUCTION OF THE SAME” (NIHON MEDI-PHYSICS CO., LTD., priority 2007, published 2010).

Columns and labels:
[1] = system: bone marrow cells of Crlj:CD1 (ICR) male mouse; assay: Micronucleus test; assay type: in vivo; conditions: single oral administration 250-2000 mg/kg, 24 and 48 hours
Experimental: In order to study mutagenicity (in vivo) of Compound I-4, induction of micronucleated polychromatic erythrocyte (hereinafter referred to as MNPCE) was examined using bone marrow cells of Crlj:CD1 (ICR) male mouse.
0 mg/kg (negative control group), 250, 500, 1000 and 2000 mg/kg (test sample group) were set as doses for the test. Mice were sacrificed 24 and 48 hours after single oral administration, and bone marrow smear was prepared and observed. Further, a single dose of MMC at 2 mg/kg was abdominally administrated in positive control group, mice were sacrificed 24 hours after the administration, and then bone marrow smear was prepared and observed.
As statistical analysis, significance tests were conducted by Wilcoxon rank sum test for the appearance frequency of MNPCE and the ratio of polychromatic erythrocyte (hereinafter referred to as PCE) to the total red blood cell (hereinafter referred to as RBC) in each administration group concerning the test sample and positive control groups relative to the negative control group and concerning these groups relative to each other where the significance level was set to less than 5% and less than 1%, respectively.

[2] = biological target: T1, amyloid (aggregated Aβ1-40) (Homo sapiens, UniProt P05067); assay: Measurement of affinity with amyloid: inhibition of [125I]3′-I-BTA-0 binding; conditions: [125I]3′-I-BTA-0 400 pmol/L, amyloid 1 μmol/L, 22° C., 3 hours
T1 construct: Aβ1-40 (Peptide Institute, INC.) was dissolved in phosphate buffer (pH 7.4); purchased Peptide Institute, INC
T1 sequence (P05067 672-711 limits assumed): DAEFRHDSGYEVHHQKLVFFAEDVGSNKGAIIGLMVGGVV
Experimental: Affinity of the present compounds with amyloid was examined by the following in vitro binding tests.
(1) Aβ1-40 (Peptide Institute, INC.) was dissolved in phosphate buffer (pH 7.4) and shaken at 37° C. for 62-72 hours, to obtain a 1 mg/mL suspension of aggregated Aβ (hereinafter referred to as amyloid suspension in this Example).
(3) According to the method described in a literature (Wang, Y., et al., J. Labeled Compounds Radiopharmaceut. 44, 5239 (2001)), [^125I]2-(3′-iodo-4′-aminophenyl)benzothiazole (hereinafter referred to as […]) was prepared from a labeling precursor 2-(4′-aminophenyl)benzothiazole, and dissolved in ethanol.
(5) Samples in which [^125I]3′-I-BTA-0, each compound for evaluation and amyloid were dissolved in a 0.1% bovine serum albumin-containing phosphate buffer (pH 7.4) at final concentrations shown in Table 1-2 were prepared. The resulting samples were filled in each well (about 0.3 mL in volume) of a 96-well microplate.
(6) The microplate filled with the sample solutions was shaken at a given rate (400 rpm) at 22° C. for 3 hours. Then, each sample solution was filtered through a glass fiber filter (trade name: Mulutiscreen™-FC, manufactured by Millipore), to separate the [^125I]3′-I-BTA-0 attached to amyloid from the free [^125I]3′-I-BTA-0.
(7) The glass fiber filter used for the filtration of each sample solution was washed with a 0.1% bovine serum albumin-containing phosphate buffer (pH 7.4) (0.5 mL×5), and radioactivity of the glass fiber filter was measured with an autowell gamma system (manufactured by Aloka, Type: ARC-301B).
(8) Separately, a solution of containing 15 μmol/L of 6-Me-BTA-2, […] of [^125I]3′-I-BTA-0 and 1 μmol/L of Aβ1-40 were prepared and subjected to the same procedures as described above in (6) and (7) to measure a radioactivity level. The measured radioactivity level was defined as the background radioactivity level, and used in the calculation of the inhibition ratio (hereinafter referred to as BG).
(9) Using the radioactivity levels measured above in (7) and (8), the inhibition ratio was determined by the following formula (1-1).
A graph in which values converted by probit transformation from the obtained inhibition ratios were plotted relative to logarithms of concentrations of compounds for evaluation was prepared to obtain an approximate straight line by the least square method. Using the line, the concentration of each compound for evaluation was determined, at which the radioactivity level is half of the level of the sample free from each compound for evaluation, and was defined as a 50% inhibition concentration of each compound (hereinafter referred to as IC50% value). Using the value as an indicator, affinity of each compound for evaluation with amyloid (aggregated Aβ1-40) was evaluated.

[3] = system: Salmonella typhimurium TA98; assay: Reverse mutation test (Ames test), TA98; assay type: cell-based
Experimental: (§1) In order to examine mutagenicity of Compound I-1, I-2, I-4 and I-5, reverse mutation test using Salmonella typhimurium TA98 and TA100 (hereinafter referred to as Ames test) was conducted.
(§2) The test was conducted without addition of S9mix and with addition of S9mix. Dimethylsulfoxide was used as a negative control. A positive control was 2-(2-furyl)-3-(5-nitro-2-furyl)acrylamide in case S9mix was not added, and 2-aminoanthracene in case S9mix was added.
(§3) The amount of each sample to be added to the test plate was 7 dosages (geometric ratio 4) with the maximum dose being 1250 μg/plate for Compounds I-1 and I-5, and 7 dosages (geometric ratio 3) with the maximum dose being 5000 μg/plate for Compounds I-2 and I-4. After a sample to be examined and a strain (TA98 or TA100), or a sample to be examined, S9mix and the strain were mixed together, the mixture was multilayered using soft agar on a medium of a test plate, and then incubated at 37° C. for 48 hours.

[4] = system: Salmonella typhimurium TA100; assay: Reverse mutation test (Ames test), TA100; assay type: cell-based
Experimental: as §1, §2, §3

[5] = system: Chinese Hamster fibroblast cell line (CHL/IU cell); assay: Chromosome aberration test; assay type: cell-based; conditions: with or without S9 short-term treatment and 24-hour continuous treatment; 0.15-1.2 mg/mL
Experimental: In order to examine whether Compound I-4 can induce chromosome aberration, the chromosome aberration test was conducted using Chinese Hamster fibroblast cell line (CHL/IU cell) in a culture system with or without addition of S9 by short-term treatment process and in a 24-hour culture system by continuous treatment process. The addition amount of a sample to be tested was set to 1.2, 0.6, 0.3, and 0.15 mg/mL for all the respective culture systems.

[6] = system: Salmonella typhimurium TA98 and TA100; assay: Reverse mutation test (Ames test), overall judgment; assay type: cell-based; conditions: TA98 and TA100, with and without S9mix
Experimental: as §1, §2, §3
The numbers of reverse mutation colonies of the respective strains in the group treated with Compounds I-1, I-2, I-4 and I-5 were less than two times the number in the group treated with the negative control, regardless of addition of S9mix and the addition amount of a sample to be examined. From the aforementioned results, it is judged that Compounds I-1, I-2, I-4 and I-5 are negative in the Ames test and have no mutagenicity.

[7] = Unspecific accumulation at sites without amyloid (applicant's studies); conditions: results of our studies
[8] = International Publication No. WO03/106439; cited from earlier work
[9] = Partition coefficient based on HPLC; assay type: physicochemical; conditions: mobile phase 50 mM triethylamine phosphate (pH 7.2)/acetonitrile=40/60
Experimental: Measurements of partition coefficient based on HPLC The partition coefficient by HPLC (hereinafter referred to as log PHPLC) was measured by the following method.
First, compounds for evaluation shown in Table 1-5 were dissolved at a concentration of 1 mg/mL in methanol containing 10% dimethylsulfoxide to prepare sample solutions. One μL of the sample solution was subjected to HPLC analysis under the following conditions to determine the elution time (t0) of the solvent and the elution time (tR) of each compound.
Column: Prodigy ODS (3) (product name; manufactured by phenomenex; size: 4.6×250 mm)
Mobile phase: a mixed solution of 50 mM triethylamine phosphate (pH 7.2)/acetonitrile=40/60
Detector: ultraviolet visible absorptiometer (detection wavelength: 282 nm)
Using the obtained t0 and tR, the retention factor (hereinafter referred to as K′HPLC value) of each compound for evaluation was determined according to the following calculation formula (1-3).
After the individual solutions were stirred for 30 seconds, the solutions were centrifuged at 2,000 rpm for 60 minutes. 1 mL each of the octanol phase and the water phase was fractionated, and the radioactivity was measured by an autowell gamma system (manufactured by Aloka Co., Ltd.: Type ARC-301B). Based on the obtained radioactivity, log Poctanol values were calculated according to the above equation (1-2). […]

[10] = Transferability into brain and clearance; assay type: in vivo, male Wistar rats; conditions: rats, intravenous injection
Excerpt: Three animals were used for Experiment I-20 and Comparative Experiment I-9, and two animals were used for Experiment I-21 at the respective time points.

[11] = Transferability into brain and clearance (2); assay type: in vivo, male Wistar rats; conditions: rats, intravenous injection, Table 1-10
Experimental: 0.05 mL each of these solutions was injected under thiopental anesthesia into the tail vein of respective Wistar rats (7-week old). The rats were sacrificed by bleeding from abdominal artery, and brains were removed and subjected to measurement of mass of brains and further subjected to measurement of radioactivity (hereinafter referred to as A in this Example) with a single channel analyzer (detector type: SP-20 manufactured by OHYO KOKEN KOGYO Co., Ltd.) 2, 5, 30 and 60 minutes after the injection. Also, radioactivity (hereinafter referred to as B in this Example) of the rest of the whole body was measured in the same manner as above. Using these measurement results, radioactive distribution per unit weight of brain (% ID/g) at the respective time points were calculated in accordance with the following formula (1-7).
Three animals were used for experiment at the respective time points.

[12] = Partition coefficient based on the octanol extraction method; assay type: physicochemical; conditions: octanol / 10 mmol/L phosphate buffer (pH 7.4)
Experimental: After the mixture was centrifuged with a low-speed centrifuge (2000 rpm×60 min.), the octanol layer and the water layer were sampled each in an amount of 1 mL, and subjected to measurement of radioactivity count with an autowell gamma system (manufactured by Aloka, Type: ARC-301B). Using the obtained radioactivity count, log Poctanol was calculated in accordance with the equation (1-2).

[13] = Partition coefficient based on the octanol extraction method (Example I-29); assay type: physicochemical; conditions: octanol / 10 mmol/L phosphate buffer (pH 7.4), Table I-9
Experimental: To 2 mL of octanol, 10 μL each of the prepared sample solutions was added, and 2 mL of a 10 mmol/L phosphate buffer (pH 7.4) was further added, followed by stirring for 30 seconds.

FCCOc1ccc(-c2cn3cc(I)ccc3n2)cc1 [Compound I-4, 2-[4′-(2″-fluoroethoxy)phenyl]-6-iodoimidazo[1,2-a]pyridine]
mutagenicity (in vivo), induction of micronucleus [1]: negative | IC50 [2]: 0.9 nM | Mutagenicity, TA98, With addition of S9mix ([3]; with S9mix): Negative | Mutagenicity, TA98, Without addition of S9mix ([3]; without S9mix): Negative | Mutagenicity, TA100, With addition of S9mix ([4]; with S9mix): Negative | Mutagenicity, TA100, Without addition of S9mix ([4]; without S9mix): Negative | capability of inducing chromosome aberration [5]: negative | Ames test judgment [6]: negative

CN(C)c1ccc(-c2cn3cc(I)ccc3n2)cc1 [IMPY, 6-iodo-2-[4′-(N,N-dimethylamino)phenyl]imidazo[1,2-a]pyridine]
unspecific accumulation on sites other than amyloid deposition [7]: accumulates unspecifically on white matter or other sites where amyloid is not deposited | reverse mutation test [8]: positive | logPHPLC value [9]: 2.1

CN(C)c1ccc(-c2cn3cc([123I])ccc3n2)cc1 [[^123I]-IMPY, reference compound]
Radioactive distribution per unit weight in brain, After 2 min. ([10]; 2 min.): 1.02 % ID/g | Radioactive distribution per unit weight in brain, After 5 min. ([10]; 5 min.): 0.99 % ID/g | Radioactive distribution per unit weight in brain, After 30 min. ([10]; 30 min.): 0.20 % ID/g | Radioactive distribution per unit weight in brain, After 60 min. ([10]; 60 min.): 0.08 % ID/g | Radioactive distribution per unit weight in brain, After 2 min. ([11]; 2 min.): 1.19 % ID/g | Radioactive distribution per unit weight in brain, After 5 min. ([11]; 5 min.): 0.97 % ID/g | Radioactive distribution per unit weight in brain, After 30 min. ([11]; 30 min.): 0.23 % ID/g | Radioactive distribution per unit weight in brain, After 60 min. ([11]; 60 min.): 0.09 % ID/g | logPoctanol value [12]: 2.1 | logPoctanol value [13]: 2.1
